Here are results for 38 compounds from patent US20260327234A1, “NOVEL COMPOUNDS AS CYP11A1 INHIBITORS AND METHODS OF USE THEREOF” (Shenzhen Ionova Life Science Co., Ltd., priority 2023, published 2026).

Assay [1] has as its target T1, testosterone (T) production in NCI-H295R cells (Homo sapiens, UniProt P05108).
T1 construct: testosterone measured by LC-MS/MS as downstream steroid
T1 sequence (P05108 40-521): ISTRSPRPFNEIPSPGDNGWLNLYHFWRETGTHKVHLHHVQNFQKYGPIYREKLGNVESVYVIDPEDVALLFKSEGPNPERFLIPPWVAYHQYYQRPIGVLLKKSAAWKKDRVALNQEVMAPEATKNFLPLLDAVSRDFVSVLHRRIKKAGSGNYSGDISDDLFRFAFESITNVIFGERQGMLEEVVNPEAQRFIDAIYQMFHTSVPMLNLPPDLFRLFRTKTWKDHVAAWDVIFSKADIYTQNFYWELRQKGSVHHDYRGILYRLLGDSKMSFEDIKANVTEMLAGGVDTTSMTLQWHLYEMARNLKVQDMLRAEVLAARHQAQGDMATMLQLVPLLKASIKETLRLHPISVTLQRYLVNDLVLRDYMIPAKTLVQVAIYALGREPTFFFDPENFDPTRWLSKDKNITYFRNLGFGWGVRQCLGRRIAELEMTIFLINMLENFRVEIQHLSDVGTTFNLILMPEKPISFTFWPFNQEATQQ
Kind of assay: H295R Steroid Biosynthesis Inhibition Assay - inhibition of testosterone (T) production in NCI-H295R cells. The assay is classed as cell-based. The following applies: 48 h, LC-MS/MS, read-out: Inh. of T IC50. As for the experimental part:
(§1) Steroid Biosynthesis Inhibition by test compounds in NCI-H295R cells (ATCC) was studied by measuring the cellular production of pregnenolone (P) catalyzed by CYP11A1 and the downstream steroid, testosterone (T). Cells were cultured in Dulbecco's modified eagle's medium F12 (DMEM/F12) with phenol red (Gibco, Cat. No. 11330032) supplemented with 2% UltroserG (Pall, Cat. No. 15950-017, USA), 1% ITS-Premix and 1% penicillin and streptomycin (Hyclone, Cat. No. SV30010, USA). Prior to the assay, cells were thawed and passed 4 times. The maximal passage number used for the assay was 10. For this assay, DMEM/F12 without phenol red supplemented with 10% charcoal-stripped fetal bovine serum (VivaCell, Cat. No. C3830-0500, USA) were used. In a 96-well plate, 60,000 cells/well were plated (90 μL/well) and incubated for 24 h. Test compounds, diluted in a serial dilution ranging from 1000 nM to 0.15 nM in the assay medium, were added to the plate. After 48 h of incubation, solution from each well were collected and transferred to individual 1.5 mL centrifuge tubes, and then 5 ng/mL deuterated testosterone (D3-testosterone) and 50 ng/mL deuterated pregnenolone (D4-pregnenolone) in 200 μL acetonitrile were added. After vigorously mixing for 5 min, the mixture was centrifuged at 12,700 rpm for 15 min. An aliquot of 250 μL supernatant was collected and dried under N2 stream. After addition of 150 μL Methanol:water (1:1, v/v) to the dried product, 50 μL sample of this solution was injected into the LC-MS/MS system for analysis.
(§2) The half-maximal inhibitory concentration (IC50) for steroid biosynthesis inhibition was determined by curve-fitting with the 4-variable inhibitory dose response equation using GraphPad Prism software.
(§3) Testosterone and pregnenolone were analyzed using Shimadzu LC30AD HPLC system (Shimadzu, Kyoto, Japan) coupled with AB SCIEX Qtrap 5500 triple quadrupole mass spectrometer (AB Sciex, Framingham, MA, USA) via ESI interface in the positive ionization mode. An ACQUITY UPLC BEH Shield RP18 column (1.7 μm, 2.1×50 mm, Milford, MA, USA) maintained at 40° C. was used to separate analytes and IS form the sample matrix.
(§4) The mobile phase was a mixture of 10 mM ammonium acetate in water containing 0.2% formic acid (A) and methanol containing 0.2% formic acid (B) at a flow rate of 0.6 mL/min. The gradient program was set as follows: from 0 min to 0.5 min, 60% B; from 0.5 min to 3.5 min, 90% B; from 3.5 min to 4.5 min, 90% B; from 4.51 min to 5.0 min, 60% B. The injection volume was […].
(§5) The MS/MS parameters were set as follows: ion spray voltage, 5500 V; curtain gas, 35 psi; Gas 1, 55 psi; Gas 2: 55 psi; temperature, […]. The optimized multiple reaction monitoring (MRM) fragmentation transitions and MS parameters of each analyte are summarized in Table 1.

Another assay deals with T2, CYP11A1 (Homo sapiens, UniProt P05108).
T2 construct: measuring the cellular production of pregnenolone (P) catalyzed by CYP11A1; host or cells: NCI-H295R
T2 sequence (P05108 40-521): T1 sequence (P05108 40-521)
Kind of assay: H295R Steroid Biosynthesis Inhibition Assay - inhibition of pregnenolone (P) production catalyzed by CYP11A1 in NCI-H295R cells. In kind it is cell-based. The following applies: 48 h, LC-MS/MS, read-out: Inh. of P IC50. As for the experimental part: as §1, §2, §3, §4, §5

Some results are limits rather than exact numbers.

Broadly, the IC50 is the point on the concentration scale where inhibition reaches its midpoint. In the case of `CN(C)C(=O)[C@H]1CC[C@H](c2cc3oc(CN4Cc5ccccc5C4)cc(=O)c3o2)CC1` [Compound 47], the IC50 (in assay [1]; on CYP11A1) was at most 40 nM each time.

In the case of `O=c1cc(CN2Cc3ccccc3C2)oc2cc([C@@H]3CC[C@@H](O)[C@@H](F)C3)oc12` [Compound 30], the IC50 (in assay [1]; at CYP11A1) was at most 40 nM in each case.

Take `CCNC(=O)N1CCC(c2cnc3cc(CN4Cc5ccccc5C4)ccc3n2)CC1` [Compound 116]: the results for the IC50 (in assay [1]; on CYP11A1) were at least 101 nM and 40 to 100 nM, respectively.

`Cn1c(C2CCN(S(C)(=O)=O)CC2)nc2cc(CN3Cc4ccccc4C3)ccc21` [Compound 129]: the IC50 is at least 101 nM in assay [1] and at most 40 nM at CYP11A1.

For the compound `CS(=O)(=O)N1CCC(n2cc3ccc(CN4Cc5ccccc5C4)cc3n2)CC1` [Compound 131], the IC50 (in assay [1]; on CYP11A1) was at most 40 nM each time.

For the compound `CS(=O)(=O)N1CCC2(CC1)CC(c1cc3oc(CN4Cc5ccccc5C4)cc(=O)c3o1)C2` [Compound 22], the IC50 (in assay [1]; on CYP11A1) was at most 40 nM each time.

With `O=C(NCC(F)(F)F)N1CCC(c2cnc3cc(CN4Cc5ccccc5C4)ccc3n2)CC1` [Compound 120], the IC50 is 41 to 100 nM in assay [1] and at most 40 nM on CYP11A1.

With `CNS(=O)(=O)c1ccc(-c2cc3oc(CN4Cc5ccccc5C4)cc(=O)c3o2)cc1` [Compound 51], the IC50 (in assay [1]; on CYP11A1) was at most 40 nM throughout.

For the compound `CS(=O)(=O)Nc1ccc(-c2cc3oc(CN4Cc5ccccc5C4)cc(=O)c3o2)cc1` [Compound 52], the IC50 (in assay [1]; at CYP11A1) was at most 40 nM in each case.

As for `O=C(NC1COC1)N1CCC(c2cnc3cc(CN4Cc5ccccc5C4)ccc3n2)CC1` [Compound 118], the IC50 is at least 101 nM in assay [1] and at least 100 nM at CYP11A1.

Consider `Cn1c(C2CCN(S(C)(=O)=O)CC2)nc2ccc(CN3Cc4ccccc4C3)cc2c1=O` [Compound 63], for which the concentration for half-maximal inhibition (IC50) (in assay [1]; on CYP11A1) was at most 40 nM throughout.

In the case of `CC(C)(C)OC(=O)N1CCC(c2cnc3cc(CN4Cc5ccccc5C4)ccc3n2)CC1` [Compound 113], the figures for the IC50 (in assay [1]; on CYP11A1) were 41 to 100 nM and 40 to 100 nM, respectively.

On to `O=c1cc(CN2Cc3ccccc3C2)oc2cc(C34CCC(O)(CC3)CC4)oc12` [Compound 34], for which the IC50 (in assay [1]; at CYP11A1) was at most 40 nM in each case.

As for `CC(C)OC(=O)N1CCC(c2cnc3cc(CN4Cc5ccccc5C4)ccc3n2)CC1` [Compound 112], the IC50 in assay [1] was 41 to 100 nM; on CYP11A1 it was 40 to 100 nM.

Consider `CS(=O)(=O)N1CCC(c2cnc3cc(CN4CCn5cccc5C4)ccc3n2)CC1` [Compound 125], for which the 50% inhibitory concentration (IC50) in assay [1] is at least 101 nM; at CYP11A1 it was at least 100 nM.

Regarding `O=S(=O)(C1CC1)N1CCC(c2cnc3cc(CN4Cc5ccccc5C4)ccc3n2)CC1` [Compound 95], the IC50 (in assay [1]; at CYP11A1) was at most 40 nM throughout.

In the case of `CP(C)(=O)c1ccc(-c2cc3oc(CN4Cc5ccccc5C4)cc(=O)c3o2)cc1` [Compound 50], the results for the IC50 (in assay [1]; on CYP11A1) were at least 101 nM and at least 100 nM, respectively.

In the case of `CC(C)S(=O)(=O)N1CCC(c2cnc3cc(CN4Cc5ccccc5C4)ccc3n2)CC1` [Compound 94], the IC50 (in assay [1]; on CYP11A1) was at most 40 nM in each case.

With `C[C@]1(c2cc3oc(CN4Cc5ccccc5C4)cc(=O)c3o2)CC[C@H](O)CC1` [Compound 41], the concentration for half-maximal inhibition (IC50) (in assay [1]; at CYP11A1) was at most 40 nM in each case.

With `CS(=O)(=O)N1CC2(CC(c3cc4oc(CN5Cc6ccccc6C5)cc(=O)c4o3)C2)C1` [Compound 23], the IC50 (in assay [1]; on CYP11A1) was at most 40 nM in each case.

In the case of `CS(=O)(=O)N1CCC(c2cc3oc(CN4CCc5ccccc5C4)cc(=O)c3o2)CC1` [Compound 21], the IC50 was at least 101 nM in assay [1] and at least 100 nM on CYP11A1.

As to `N#C[C@H]1CC[C@H](c2cc3oc(CN4Cc5ccccc5C4)cc(=O)c3o2)CC1` [Compound 48], the IC50 was 41 to 100 nM in assay [1] and at most 40 nM on CYP11A1.

As for `CS(=O)(=O)N1CC2(CC(c3ccc4cc(CN5Cc6ccccc6C5)ccc4n3)C2)C1` [Compound 75], the IC50 (in assay [1]; on CYP11A1) was at most 40 nM each time.

In the case of `CCCS(=O)(=O)N1CCC(c2cnc3cc(CN4Cc5ccccc5C4)ccc3n2)CC1` [Compound 92], the IC50 (in assay [1]; on CYP11A1) was at most 40 nM in each case.

Take `CC(=O)N1CCC(c2cnc3cc(CN4Cc5ccccc5C4)ccc3n2)CC1` [Compound 101]: the IC50 was at least 101 nM in assay [1] and at least 100 nM on CYP11A1.

As to `COc1nc(C2CCN(S(C)(=O)=O)CC2)nc2ccc(CN3Cc4ccccc4C3)cc12` [Compound 85], the IC50 (in assay [1]; on CYP11A1) was at most 40 nM in each case.

`O=C(c1ccccc1)N1CCC(c2cnc3cc(CN4Cc5ccccc5C4)ccc3n2)CC1` [Compound 104]: the IC50 in assay [1] was at least 101 nM; at CYP11A1, 40 to 100 nM.

`C[C@]1(O)CC[C@H](c2cc3oc(CN4Cc5ccccc5C4)cc(=O)c3o2)CC1` [Compound 27]: the IC50 (in assay [1]; at CYP11A1) was at most 40 nM throughout.

As for `CS(=O)(=O)N1C[C@@H]2[C@@H](COc3coc(CN4Cc5ccccc5C4)cc3=O)[C@@H]2C1` [Compound 1, 2-(isoindolin-2-ylmethyl)-5-(((1R,5S,6r)-3-(methylsulfonyl)-3-azabicyclo[3.1.0]hexan-6-yl)methoxy)-4H-pyran-4-one], the IC50 in assay [1] is 41 to 100 nM; on CYP11A1, at most 40 nM.

On to `CS(=O)(=O)N1C[C@@H]2[C@H](C1)[C@H]2c1cc2oc(CN3CCn4cccc4C3)cc(=O)c2o1` [Compound 53], for which the IC50 in assay [1] lay within 41 to 100 nM; at CYP11A1, 40 to 100 nM.

With `COC(=O)N1CCC(c2cnc3cc(CN4Cc5ccccc5C4)ccc3n2)CC1` [Compound 110], the IC50 (in assay [1]; on CYP11A1) was at most 40 nM each time.

Regarding `CS(=O)(=O)N1C[C@@H]2[C@H](C1)[C@H]2c1cc2oc(CN3Cc4ccccc4C3)cc(=O)c2o1` [Compound 13, 5-(isoindolin-2-ylmethyl)-2-((1R,5S,6r)-3-(methylsulfonyl)-3-azabicyclo[3.1.0]hexan-6-yl)-7H-furo[3,2-b]pyran-7-one], the half-maximal inhibitory concentration (IC50) (in assay [1]; at CYP11A1) was at most 40 nM each time.

With `CS(=O)(=O)N1CCC(COc2coc(CN3CCc4sccc4C3)cc2=O)CC1` [Compound 5], the results for the IC50 (in assay [1]; on CYP11A1) were at least 101 nM and at least 100 nM, respectively.

With `C[C@]1(O)CC[C@@H](c2cc3oc(CN4Cc5ccccc5C4)cc(=O)c3o2)CC1` [Compound 28], the IC50 was at least 101 nM in assay [1] and at most 40 nM on CYP11A1.

`CC(Oc1ccc(CN2Cc3ccccc3C2)c2cccnc12)C1CCN(S(C)(=O)=O)CC1` (stereo not shown) [Compound 11]: the IC50 in assay [1] was 41 to 100 nM; on CYP11A1 it was at most 40 nM.

Regarding `CS(=O)(=O)c1ccc(-c2cc3oc(CN4Cc5ccccc5C4)cc(=O)c3o2)cc1` [Compound 49], the IC50 (in assay [1]; at CYP11A1) was at most 40 nM in each case.

With `O=S(=O)(C1CCCC1)N1CCC(c2cnc3cc(CN4Cc5ccccc5C4)ccc3n2)CC1` [Compound 96], the half-inhibitory concentration (IC50) (in assay [1]; at CYP11A1) was at most 40 nM in each case.

As for `O=c1cc(CN2Cc3ccccc3C2)oc2cc([C@H]3CC[C@H](O)CC3)oc12` [Compound 29], the concentration for half-maximal inhibition (IC50) (in assay [1]; on CYP11A1) was at most 40 nM throughout.
